Tests used:
[1] = target: T1, Amine oxidase [flavin-containing] B (Homo sapiens, UniProt P27338)
T1 sequence (P27338 whole entry): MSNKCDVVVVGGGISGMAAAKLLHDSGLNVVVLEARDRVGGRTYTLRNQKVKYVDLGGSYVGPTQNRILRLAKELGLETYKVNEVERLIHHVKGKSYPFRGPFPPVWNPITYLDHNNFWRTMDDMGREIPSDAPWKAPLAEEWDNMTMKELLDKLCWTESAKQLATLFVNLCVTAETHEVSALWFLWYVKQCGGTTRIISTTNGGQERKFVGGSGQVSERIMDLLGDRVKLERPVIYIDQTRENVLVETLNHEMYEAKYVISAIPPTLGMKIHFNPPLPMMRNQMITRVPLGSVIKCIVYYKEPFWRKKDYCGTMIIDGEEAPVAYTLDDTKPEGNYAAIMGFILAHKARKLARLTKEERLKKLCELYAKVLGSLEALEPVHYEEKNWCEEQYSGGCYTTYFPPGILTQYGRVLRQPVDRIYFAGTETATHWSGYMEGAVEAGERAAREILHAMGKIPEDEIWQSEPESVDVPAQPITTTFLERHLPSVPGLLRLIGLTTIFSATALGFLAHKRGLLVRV

[2] = target: Lysine-specific histone demethylase 1A (Homo sapiens, UniProt O60341)
[3] = target: T2, Amine oxidase [flavin-containing] A (Homo sapiens, UniProt P21397)
T2 sequence (P21397 whole entry): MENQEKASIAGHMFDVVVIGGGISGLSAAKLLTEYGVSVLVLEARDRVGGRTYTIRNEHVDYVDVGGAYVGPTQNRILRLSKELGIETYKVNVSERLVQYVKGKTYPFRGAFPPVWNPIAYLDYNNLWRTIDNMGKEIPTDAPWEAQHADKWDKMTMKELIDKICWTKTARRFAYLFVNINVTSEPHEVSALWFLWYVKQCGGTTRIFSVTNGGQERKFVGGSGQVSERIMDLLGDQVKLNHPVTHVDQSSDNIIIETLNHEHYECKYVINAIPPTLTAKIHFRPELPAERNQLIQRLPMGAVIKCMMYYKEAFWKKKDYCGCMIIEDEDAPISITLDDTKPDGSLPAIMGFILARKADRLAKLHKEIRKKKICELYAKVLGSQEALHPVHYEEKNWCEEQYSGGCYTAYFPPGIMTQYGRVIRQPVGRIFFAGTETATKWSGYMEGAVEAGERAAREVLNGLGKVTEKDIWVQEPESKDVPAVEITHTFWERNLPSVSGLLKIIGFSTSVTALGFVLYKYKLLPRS

Compound: C[C@H](N)C(=O)N[C@@H](CCCNC(=N)N)C(=O)N[C@H](C(=O)N[C@@H](CCCCN[C@@H]1C[C@H]1c1ccccc1)C(=O)N[C@@H](CCC(N)=O)C(=O)N[C@H](C(=O)N[C@@H](C)C(=O)N[C@@H](CCCNC(=N)N)C(=O)N[C@@H](CCCCN)C(=O)N[C@@H](CO)C(=O)N[C@H](C(=O)O)[C@@H](C)O)[C@@H](C)O)[C@@H](C)O
- IC50 [1]: > 10 µM
- IC50 [2]: 0.154 µM
- IC50 [3]: > 10 µM
